From PMC8617031, “Development of a BCL-xL and BCL-2 dual degrader with improved anti-leukemic activity,” (Nature Communications, 2021)
Values joined by “and” are separate entries in the source; they are usually repeats but may differ in a detail not shown here. Equal values may be shown once.

Tests used:
[1] = tested on: BCL-2/PROTAC/VCB ternary complex (HiBit-BCL-2, HaloTag-VHL); experiment: NanoBRET intracellular ternary complex formation in 293T cells, BCL-2; assay type: cell-based, human; details: for NanoBRET signal (610/450 ratio, background-subtracted), Ave, Bcl-2 / NanoBRET ratio (610/450 x1000, background-subtracted), Bcl-2, Ave: Ave of Read1 and Read2; for NanoBRET signal (610/450 ratio, background-subtracted), Ave, Bcl-2: per replicate well; for NanoBRET signal (610/450 ratio, background-subtracted), Read1, Bcl-2 / NanoBRET signal (610/450 ratio, background-subtracted), Read2, Bcl-2: individual replicate wells; for NanoBRET ratio (610/450 x1000, background-subtracted), Bcl-2, Ave / NanoBRET ratio (610/450 x1000, background-subtracted), Bcl-2, Read1 / NanoBRET ratio (610/450 x1000, background-subtracted), Bcl-2, Read2: 293T cells, triplicate wells
From the text: (§1) Plasmids HaloTag-VHL (Cat. No. CS1679C155) and CMV HiBit (Cat. No. CS1956B03) were purchased from Promega. HiBit-BCL-xL and HiBit-BCL-2 were constructed previously. The two mutants (HiBit-BCL-xL-K157-only and HiBit-BCL-xL-K-ko) were constructed through Gibson assembly method. The primer pair (5′-[…]-3′ and 5′-[…]c[…]-3′) and the template Flag-BCL-xL-K157-only or Flag-BCL-xL-K-ko (pDL2129)[2] were used to clone the BCL-xL-K157-only-containing and BCL-xL-K-ko-containing fragments, respectively. The primer pair (5′-[…]g[…]-3′ and 5′-[…]-3′) and pBit3.1-N (Cat. No. N2361, Promega) were used to clone the vector-containing fragment. The PCR fragments were assembled using NEBuilder® HiFi DNA Assembly Master Mix (Cat. No. E2621, NEB, Ipswich, MA, USA). DNA sequences in all these plasmids were authenticated by automatic sequencing. […] After 24 h, 2 × 10^4 transfected cells were seeded into white 96-well tissue culture plates in Gibco™ Opti-MEM™ I Reduced Serum Medium, No Phenol Red (Cat. No. 11-058-021, Fisher) containing 4% FBS with or without HaloTag NanoBRET 618 Ligand (Cat. No. PRN1662, Promega) and incubated overnight at 37 °C, 5% CO2. The following day, serial diluted compounds were added into the medium and plates were incubated at 37 °C, 5% CO2, for 6 h. After treatment, NanoBRET Nano-Glo Substrate (cat. no. N1662, Promega) was added into the medium, and the contents were mixed by shaking the plate for 30 s before measuring donor and acceptor signals on Biotek plate reader. Dual-filtered luminescence was collected with a 450/50 nm bandpass filter (donor, NanoBiT-BCL-XL protein or NanoBiT-BCL-2 protein) and a 610-nm longpass filter (acceptor, HaloTag NanoBRET ligand) using an integration time of 0.5 s. mBRET ratios were calculated following the NanoBRET™ Nano-Glo® Detection System (Cat. No. N1662, Promega).

[2] = tested on: BCL-xL/PROTAC/VCB ternary complex (HiBit-BCL-xL, HaloTag-VHL); experiment: NanoBRET intracellular ternary complex formation in 293T cells, BCL-xL; assay type: cell-based, human; details: for NanoBRET signal (610/450 ratio, background-subtracted), Ave, Bcl-xl / NanoBRET ratio (610/450 x1000, background-subtracted), Bcl-xl, Ave: Ave of Read1 and Read2; for NanoBRET signal (610/450 ratio, background-subtracted), Ave, Bcl-xl: per replicate well; for NanoBRET signal (610/450 ratio, background-subtracted), Read1, Bcl-xl / NanoBRET signal (610/450 ratio, background-subtracted), Read2, Bcl-xl: individual replicate wells; for NanoBRET ratio (610/450 x1000, background-subtracted), Bcl-xl, Ave / NanoBRET ratio (610/450 x1000, background-subtracted), Bcl-xl, Read1 / NanoBRET ratio (610/450 x1000, background-subtracted), Bcl-xl, Read2: 293T cells, triplicate wells
From the text: as §1

| Structure (SMILES) | NanoBRET signal (610/450 ratio, background-subtracted), Ave, Bcl-2 ([1]; 0.333 uM) | NanoBRET signal (610/450 ratio, background-subtracted), Read1, Bcl-2 ([1]; 0.333 uM) | NanoBRET signal (610/450 ratio, background-subtracted), Read2, Bcl-2 ([1]; 0.333 uM) | NanoBRET signal (610/450 ratio, background-subtracted), Ave, Bcl-2 ([1]; 1 uM) | NanoBRET signal (610/450 ratio, background-subtracted), Read1, Bcl-2 ([1]; 1 uM) | NanoBRET signal (610/450 ratio, background-subtracted), Read2, Bcl-2 ([1]; 1 uM) | NanoBRET signal (610/450 ratio, background-subtracted), Ave, Bcl-2 ([1]; 3 uM) | NanoBRET signal (610/450 ratio, background-subtracted), Read1, Bcl-2 ([1]; 3 uM) | NanoBRET signal (610/450 ratio, background-subtracted), Read2, Bcl-2 ([1]; 3 uM) | NanoBRET signal (610/450 ratio, background-subtracted), Ave, Bcl-xl ([2]; 0.333 uM) | NanoBRET signal (610/450 ratio, background-subtracted), Read1, Bcl-xl ([2]; 0.333 uM) | NanoBRET signal (610/450 ratio, background-subtracted), Read2, Bcl-xl ([2]; 0.333 uM) | NanoBRET signal (610/450 ratio, background-subtracted), Ave, Bcl-xl ([2]; 1 uM) | NanoBRET signal (610/450 ratio, background-subtracted), Read1, Bcl-xl ([2]; 1 uM) | NanoBRET signal (610/450 ratio, background-subtracted), Read2, Bcl-xl ([2]; 1 uM) | NanoBRET signal (610/450 ratio, background-subtracted), Ave, Bcl-xl ([2]; 3 uM) | NanoBRET signal (610/450 ratio, background-subtracted), Read1, Bcl-xl ([2]; 3 uM) | NanoBRET signal (610/450 ratio, background-subtracted), Read2, Bcl-xl ([2]; 3 uM) | also measured |
| --- | --- | --- | --- | --- | --- | --- | --- | --- | --- | --- | --- | --- | --- | --- | --- | --- | --- | --- | --- |
| Cc1ncsc1-c1ccc(C(C)NC(=O)C2CC(O)CN2C(=O)C(NC(=O)CCCCCCCCC(=O)N2CCN(CC3(C)CCC(c4ccc(Cl)cc4)=C(CN4CCN(c5ccc(C(=O)NS(=O)(=O)c6ccc(NC(CCN7CCOCC7)CSc7ccccc7)c(S(=O)(=O)C(F)(F)F)c6)cc5)CC4)C3)CC2)C(C)(C)C)cc1 (mixture of isomers) [319-C10] | 5.28 and 5.803 and 5.204 | 5.21 and 6.342 and 5.353 | 5.35 and 5.263 and 5.054 | 6.3574 and 6.177 and 5.647 | 6.493 and 6.555 and 5.614 | 6.221 and 5.799 and 5.68 | 5.897 and 6.959 and 6.718 | 5.772 and 7.082 and 6.87 | 6.022 and 6.837 and 6.566 | 7.322 and 6.232 and 5.134 | 7.3 and 6.35 and 5.398 | 7.344 and 6.1137 and 4.87 | 7.385 and 6.082 and 6.14 | 7.049 and 5.821 and 5.916 | 7.722 and 6.342 and 6.364 | 5.435 and 6.539 and 6.402 | 5.79 and 7.0778 and 5.898 | 5.08 and 6.001 and 6.906 | – |
| Cc1ncsc1-c1ccc(C(C)NC(=O)C2CC(O)CN2C(=O)C(NC(=O)CCCCCCC(=O)N2CCN(CC3(C)CCC(c4ccc(Cl)cc4)=C(CN4CCN(c5ccc(C(=O)NS(=O)(=O)c6ccc(NC(CCN7CCOCC7)CSc7ccccc7)c(S(=O)(=O)C(F)(F)F)c6)cc5)CC4)C3)CC2)C(C)(C)C)cc1 (mixture of isomers) [319-C8] | 6.709 and 6.763 and 6.945 | 6.876 and 6.829 and 6.839 | 6.543 and 6.698 and 7.051 | 8.276 and 7.6621 and 8.376 | 8.792 and 8.054 and 8.836 | 7.759 and 7.2706 and 7.917 | 8.696 and 8.738 and 7.9326 | 8.912 and 9.6864 and 8.129 | 8.48 and 7.79 and 7.737 | 7.726 and 6.163 and 6.736 | 7.612 and 5.878 and 6.37 | 7.841 and 6.448 and 7.103 | 7.132 and 7.494 and 7.451 | 7.4 and 7.483 and 8.183 | 6.864 and 7.506 and 6.7195 | 8.664 and 8.41 and 8.787 | 9.315 and 7.583 and 8.729 | 8.012 and 9.238 and 8.844 | – |
| Cc1ncsc1-c1ccc(C(C)NC(=O)C2CC(O)CN2C(=O)C(NC(=O)CCCCCC(=O)N2CCN(CC3(C)CCC(c4ccc(Cl)cc4)=C(CN4CCN(c5ccc(C(=O)NS(=O)(=O)c6ccc(NC(CCN7CCOCC7)CSc7ccccc7)c(S(=O)(=O)C(F)(F)F)c6)cc5)CC4)C3)CC2)C(C)(C)C)cc1 (mixture of isomers) [319-C7] | – | – | – | – | – | – | – | – | – | – | – | – | – | – | – | – | – | – | NanoBRET ratio (610/450 x1000, background-subtracted), Bcl-2, Ave ([1]; 0.333 uM): 6.052 and 6.92 and 7.6505; NanoBRET ratio (610/450 x1000, background-subtracted), Bcl-2, Read1 ([1]; 0.333 uM): 5.966 and 6.845 and 7.7752; NanoBRET ratio (610/450 x1000, background-subtracted), Bcl-2, Read2 ([1]; 0.333 uM): 6.137 and 6.996 and 7.5258; NanoBRET ratio (610/450 x1000, background-subtracted), Bcl-2, Ave ([1]; 1 uM): 8.414 and 7.671 and 8.038; NanoBRET ratio (610/450 x1000, background-subtracted), Bcl-2, Read1 ([1]; 1 uM): 8.989 and 7.62 and 8.138; NanoBRET ratio (610/450 x1000, background-subtracted), Bcl-2, Read2 ([1]; 1 uM): 7.839 and 7.721 and 7.939; NanoBRET ratio (610/450 x1000, background-subtracted), Bcl-2, Ave ([1]; 3 uM): 7.385 and 7.884 and 8.749; NanoBRET ratio (610/450 x1000, background-subtracted), Bcl-2, Read1 ([1]; 3 uM): 7.497 and 8.645 and 8.883; NanoBRET ratio (610/450 x1000, background-subtracted), Bcl-2, Read2 ([1]; 3 uM): 7.2733 and 7.122 and 8.615; NanoBRET ratio (610/450 x1000, background-subtracted), Bcl-xl, Ave ([2]; 0.333 uM): 6.383 and 6.41 and 6.027; NanoBRET ratio (610/450 x1000, background-subtracted), Bcl-xl, Read1 ([2]; 0.333 uM): 6.118 and 6.864 and 6.2545; NanoBRET ratio (610/450 x1000, background-subtracted), Bcl-xl, Read2 ([2]; 0.333 uM): 6.648 and 5.956 and 5.8; NanoBRET ratio (610/450 x1000, background-subtracted), Bcl-xl, Ave ([2]; 1 uM): 8.353 and 6.411 and 6.637; NanoBRET ratio (610/450 x1000, background-subtracted), Bcl-xl, Read1 ([2]; 1 uM): 7.957 and 6.709 and 6.774; NanoBRET ratio (610/450 x1000, background-subtracted), Bcl-xl, Read2 ([2]; 1 uM): 8.749 and 6.113 and 6.499; NanoBRET ratio (610/450 x1000, background-subtracted), Bcl-xl, Ave ([2]; 3 uM): 5.568 and 7.612 and 6.364; NanoBRET ratio (610/450 x1000, background-subtracted), Bcl-xl, Read1 ([2]; 3 uM): 5.755 and 8.211 and 6.36; NanoBRET ratio (610/450 x1000, background-subtracted), Bcl-xl, Read2 ([2]; 3 uM): 5.382 and 7.013 and 6.368 |
